Results as given in patent US20150175608A1, “NOVEL 4-SUBSTITUTED 1,3-DIHYDRO-2H-BENZIMIDAZOL-2-ONE DERIVATIVES SUBSTITUTED WITH BENZIMIDAZOLES AS RESPIRATORY SYNCYTIAL VIRUS ANTIVIRAL AGENTS” (Janssen R&D Ireland, priority 2012, published 2015).

What was measured:
rgRSV224 virus = assay: Antiviral activity: rgRSV224 replication (GFP expression) in HeLa cells; assay type: cell-based; conditions: human respiratory syncytial virus, 72 h, read-out: WT activity EC50
Procedure: (§1) Antiviral Activity Black 96-well clear-bottom microtiter plates (Corning, Amsterdam, The Netherlands) were filled in duplicate using a customized robot system with serial 4-fold dilutions of compound in a final volume of 50 μl culture medium [RPMI medium without phenol red, 10% FBS, 0.04% gentamycin (50 mg/ml) and 0.5% DMSO]. Then, 100 μl of a HeLa cell suspension (5×10^4 cells/ml) in culture medium was added to each well followed by the addition of 50 μl rgRSV224 (MOI=0.02) virus in culture medium using a multidrop dispenser (Thermo Scientific, Erembodegem, Belgium). rgRSV224 virus is an engineered virus that includes an additional GFP gene (Hallak et al, 2000) and was in-licensed from the NIH (Bethesda, Md., USA). Medium, virus- and mock-infected controls were included in each test. Cells were incubated at 37° C. in a 5% CO2 atmosphere. Three days post-virus exposure, viral replication was quantified by measuring GFP expression in the cells by a MSM laser microscope (Tibotec, Beerse, Belgium). The EC50 was defined as the 50% inhibitory concentration for GFP expression. In parallel, compounds were incubated for three days in a set of white 96-well microtiter plates (Corning) and the cytotoxicity of compounds in HeLa cells was determined by measuring the ATP content of the cells using the ATPlite kit (PerkinElmer, Zaventem, Belgium) according to the manufacturer's instructions. The CC50 was defined as the 50% concentration for cytotoxicity.

in vitro = assay type: cell-based; conditions: human
Procedure: as §1

Structure (SMILES) | EC50 (rgRSV224 virus) [nM] | CC50 at 3 days (in vitro) [nM] | melting point [°C]
CS(=O)(=O)CCCn1c(Cn2c(=O)n(C3CC3)c3c(Cl)cncc32)nc2cc(Cl)ccc21 [Compound P1, 7-Chloro-3-((5-chloro-1-(3-(methylsulfonyl)-propyl)-1H-benzo[d]imidazol-2-yl)methyl)-1-cyclopropyl-1H-imidazo[4,5-c]pyridin-2(3H)-one] | 1.7 | > 100000 | –
Cc1cccc2c1n(C1CC1)c(=O)n2Cc1nc2cc(Cl)ccc2n1CCCS(C)(=O)=O [Compound P3, 1-((5-Chloro-1-(3-(methylsulfonyl)propyl)-1H-benzo[d]imidazol-2-yl)-methyl)-3-cyclopropyl-4-methyl-1H-benzo[d]imidazol-2(3H)-one] | 5.1 | 64600 | –
CS(=O)(=O)CCCn1c(Cn2c(=O)n(CC(F)(F)F)c3c(Cl)cncc32)nc2cc(Cl)ccc21 [Compound P6, 7-chloro-3-((5-chloro-1-(3-(methylsulfonyl)propyl)-1H-benzo[d]imidazol-2-yl)methyl)-1-(2,2,2-trifluoroethyl)-1H-imidazo[4,5-c]pyridin-2(3H)-one] | 9 | > 100000 | 232.82
CS(=O)(=O)CCCn1c(Cn2c(=O)n(CC(F)(F)F)c3c(Cl)cccc32)nc2cc(Cl)ccc21 [Compound P7, 4-chloro-1-((5-chloro-1-(3-(methylsulfonyl)propyl)-1H-benzo[d]imidazol-2-yl)methyl)-3-(2,2,2-trifluoroethyl)-1H-benzo[d]imidazol-2(3H)-one] | 12 | 69000 | –
Cc1cncc2c1n(C1CC1)c(=O)n2Cc1nc2cc(Cl)ccc2n1CCCS(C)(=O)=O [Compound P4, 3-((5-chloro-1-(3-(methylsulfonyl)propyl)-1H-benzo[d]imidazol-2-yl)methyl)-1-cyclopropyl-7-methyl-1H-imidazo[4,5-c]pyridin-2(3H)-one] | 1.4 | > 100000 | –
CS(=O)(=O)CCCn1c(Cn2c(=O)n(C3CC3)c3c(Cl)cccc32)nc2cc(Cl)ccc21 [Compound P2, 4-Chloro-1-((5-chloro-1-(3-(methylsulfonyl)propyl)-1H-benzo[d]imidazol-2-yl)methyl)-3-cyclopropyl-1H-benzo[d]imidazol-2(3H)-one] | 7.4 | > 100000 | –
CS(=O)(=O)CCCn1c(Cn2c(=O)n(C3CC3)c3c(C(F)(F)F)cccc32)nc2cc(Cl)ccc21 [Compound P5, 1-((5-chloro-1-(3-(methylsulfonyl)propyl)-1H-benzo[d]imidazol-2-yl)-methyl)-3-cyclopropyl-4-(trifluoromethyl)-1H-benzo[d]imidazol-2(3H)-one] | 28 | > 100000 | 210.18
